Test results from patent US20100130597A1, “DNA-PKCS MODULATES ENERGY REGULATION AND BRAIN FUNCTION” (The United State of America, as represented by the …, priority 2007, published 2010).

Key:
[1] = Glucose levels, insulin tolerance and glucose tolerance tests in treated mice; format: in vivo; conditions: for fed glucose levels in the serum: 8 mg/kg twice daily oral gavage three months
Method: (§1) The therapeutic potential of DNA-PKcs inhibitors to treat insulin resistance and diabetes was tested in vivo using high-fat induced type 2 diabetes and obesity models. We examined the effects of DNA-PKcs inhibition by feeding C57BL6/J mice with Compound 36 (Cpd36) or vehicle. Mice were treated with Cpd36 (8 mg/kg body weight) twice daily by oral gavage for three months in all efficacy studies shown in FIGS. 40-47.

Elevated plus maze test = format: in vivo, mice
Method: To evaluate whether SCID mice may also have altered anxiety, fear and depression-like traits, an elevated plus maze test was performed, which is a commonly used test to quantify the level of anxiety- and depression-like traits in rodents (Pellow et al. J. Neurosci. Methods 14: 149-67 (1985)). The elevated plus maze has narrow runways that are located 16 inches above the surface that are either closed or open. The animal is placed in the center of an elevated 4-arm maze in which 2 arms are open and 2 are enclosed. Mice generally avoid the open arms because of their fear of open space and height. The elevated plus-maze is used to determine the rodent's response to a potentially dangerous environment and anxiety-related behavior is measured by the degree to which the rodent avoids the unenclosed arms of the maze. Increase in the number of times the animal enters the open arm and the amount of time spent in the open arms reflect decreased anxiety and depression.
(§2) Elevated plus maze tests, light/dark chamber tests, forced swim tests (FST) and hot plate tests were performed as described earlier.

C2C12 cells [2] = assay: Intercellular NAD:NADH ratio in C2C12 cells; format: cell-based; conditions: FIG. 54, Resveratrol 50 μM data not shown
Method: To test whether DNA-PKcs inhibitor affects Sirt1 activity, the intercellular NAD:NADH ratio was measured in C2C12 cells treated with Cpd36.

Forced swim test (FST) = format: in vivo, mice
Method: as §2

Light/dark chamber test = format: in vivo; conditions: treated vs untreated mice
Method: WT and SCID mice were tested in another anxiety test using the light-dark box (Bourin and Hascoet, Eur J Pharmacol 463:55 (2003)). The light-dark box test is based on the innate aversion of rodents to brightly illuminated areas and on the spontaneous exploratory behavior of rodents in response to a mildly stressful situation, that is, a novel environment and light (Crawley and Goodwin Pharmacol Biochem Behav 13:167, 1980). In the light-dark test, increased activity in the light compartment indicates decreased anxiety.
as §2

[3] = Hot plate test, latency for pain reaction; format: in vivo, mice; conditions: hot plate, FIG. 48E
Method: Epidemiological studies indicate that people with mood disorders are twice as likely to have chronic pain compared to people without mood disorders (Ohayon et al., Arch. Gen. Psychiatry 60: 39-47 (2003)). Although it is possible that pain contributes to the depressed mood, it is also possible that perception of pain is increased in people with mood disorders. To determine whether SCID mice have altered pain tolerance, the latency for pain reaction to a hot plate was measured. […] (FIG. 30) and at 55° C.
Because tolerance to pain (Example 26) is also linked to the serotonergic pathways, measurements of the latency to pain reaction on hot plate after saline, serotonin reuptake inhibitor fluoxetine (Prozac) or serotonin antagonist GR38032F (Zofran) injection were made.
as §2

[4] = Blood lactate during standardized treadmill test; format: in vivo, mice; conditions: capillary blood during standardized treadmill test, FIG. 46A
Method: The use of Cpd36 may also facilitate more rapid recovery following intense physical exertion. Blood lactate concentrations were measured in capillary blood during a standardized treadmill test.

[5] = Treadmill running endurance; format: in vivo, mice
Method: Previous studies have shown that increased expression of PPARδ or PGC-1α in skeletal muscle decreases exercise-induced fatigue. Therefore, tests were performed to ascertain what was the physical endurance of 4, 7 and 14 month-old SCID and WT mice using treadmill running. Prior to the exercise test, the mice were accustomed to and trained by running on an Exer-3/6 mouse treadmill (Columbus Instruments) at 7 m/min for 5 minutes for 3 days. For the endurance test, the treadmill speed was increased to 10 m/min and mice were allowed to run until exhaustion.
The therapeutic potential of DNA-PKcs inhibitors to reverse physical decline with aging was tested. In particular, the physical endurance of obese and middle-aged mice treated with Cpd36 was examined by treadmill running. Obese mice fed a high-fat diet that were treated with Cpd36 were able to run 40-50% farther over a given period of time than the control mice fed the same high fat diet (FIG. 45), as measured by totaling the distance run on a treadmill. Middle-aged mice (13 months) fed a breeder diet who were similarly treated with Cpd36 were also able to run 40-50% farther than middle aged mice that received no such treatment (data not shown).

[6] = Blood-brain barrier penetration inferred from behavioural effects; format: in vivo, mice; conditions: inferred from decreased anxiety/depression at a low-dose
From the text: For any central nervous system drugs, a major rate-limiting step for uptake into the brain is BBB permeability. […] The BBB is an essential physiological barrier for the maintenance and regulation of brain function. It is comprised of brain microvascular endothelial cells that are connected by tight junctions. This transvascular route to the brain is impenetrable to the majority of drugs. Enhanced BBB permeability is obtained, for example, by increasing the lipid solubility of the water-soluble molecules.

C2C12 cells [7] = assay: Cellular lactate and pyruvate in C2C12 cells; format: cell-based; conditions: 0.8 μM
[8] = Body weight, fat and lean mass, food intake and activity of treated mice; format: in vivo
Method: To determine the source of the body weight difference observed as described in Example 9, the fat and lean mass of the animals used in these experiments were measured using NMR spectroscopy (Bruker BioSpin Corporation, Houston, Tex.). Body fat indices were calculated by dividing fat or lean mass by body weight.
as §1
Body weight was monitored in mice receiving Cpd36 (8 mg/kg body weight) twice daily by oral gavage for three months.

O=c1cc(N2CCOCC2)oc2c(-c3cccc4c5c(sc34)CCCC5)cccc12 [Compound 36, 8-(6′,7′,8′,9′-Tetrahydrodibenzothiophen-4′-yl)-2-N-morpholinochromen-4-one]
fed glucose levels in the serum ([1]; HFD (obese) mice, FIG. 40A): lowered fed glucose levels
fed glucose levels in the serum ([1]; middle-aged mice (breeder diet 13 months), FIG. 40B): lowered fed glucose levels
glucose tolerance ([1]; middle-aged mice, FIG. 41): increased
insulin sensitivity ([1]; middle-aged mice, FIG. 41): increased
glucose tolerance ([1]; obese mice, FIG. 42): increased
insulin sensitivity ([1]; obese mice, FIG. 42): increased
levels of anxiety/depression (Elevated plus maze test; elevated plus maze and light/dark chamber tests, FIGS. 47 and 48): dramatically lower levels of anxiety/depression
time in closed arm of the elevated plus maze (Elevated plus maze test; treated vs untreated mice): less time in a closed arm
intercellular NAD:NADH ratio (C2C12 cells [2]): increased the NAD:NADH ratio
mobility vs untreated mice (Forced swim test (FST); FIG. 47D): more mobile
immobility in the forced swim test (Forced swim test (FST); data not shown): decreased immobility
time in the light compartment (Light/dark chamber test): more time in the light compartment
time to enter the light chamber (Light/dark chamber test): quicker to enter the light chamber
pain sensation [3]: decreased pain sensation
serum lactate levels [4]: Significantly lower serum lactate levels
distance run on treadmill, farther than untreated ([5]; middle-aged mice (13 months) on breeder diet, data not shown): 40-50%
distance run on treadmill, farther than control ([5]; obese mice on high-fat diet, FIG. 45): 40-50%
blood-brain barrier (BBB) penetration [6]: can penetrate the blood-brain barrier (BBB) efficiently
lactate levels in cell extracts (C2C12 cells [7]; 16 hrs, FIG. 46B): Reduced lactate levels
Cellular pyruvate level (C2C12 cells [7]; data not shown): increased
fat mass (NMR) ([8]; HFD mice vs control, FIG. 44): reduction in fat mass
lean mass (NMR) ([8]; HFD mice vs control, FIG. 44): slight increase in lean mass
body weight ([8]; HFD mice, 8 mg/kg twice daily oral gavage three months, FIG. 43): did not increase in body weight substantially
food intake ([8]; HFD mice, 8 mg/kg twice daily oral gavage three months, data not shown): did increase
activity of mice vs control HFD mice ([8]; HFD mice, data not shown): no significant difference
mesenteric fat ([8]; mice on HFD 3 months, 8 mg/kg twice daily oral gavage 3 months, vs vehicle): reduced mesenteric fat significantly
